According to a melting point compilation (Tetko et al.; mined from patent text by program, amines drawn as free bases though some values may be those of a salt):

SMILES	melting point [°C]
COC(=O)c1cc([N+](=O)[O-])c(C=Cc2ccc(OC)cc2)c([N+](=O)[O-])c1	142 to 143
CC(C)(C)OC(=O)n1cc(C(=O)C2CSC(c3cccnc3)N2C(=O)C=O)c2ccccc21 (centres undefined)	125 to 130
C=Cc1ccc(NC(=O)OCC2(C)COC(=O)OC2)cc1	120 to 121
Nc1ccc2c(c1)c(=O)oc1cccc(O)c12	> 260
Cc1cc(F)ccc1C=CC#N	86 to 87
N#Cc1ncc(Br)cc1Br	109 to 112
C=C1N(c2ccccc2)C(=O)OC12CCNCC2	185 to 186
O=C1CCc2cc(-c3cccs3)ccc21	148
Oc1ncn(-c2ccccc2)n1	281 to 282
COc1ccc(Nc2nccc(-c3ccc(N4CCNCC4)nc3)n2)cn1	160 to 165
Cc1cc(CCc2cc(C)c(O)c(C)c2Br)c(Br)c(C)c1O	191 to 194
CCOP(=O)(OCC)C(Sc1cc(Br)ccc1O)=P(OCC)(OCC)OCC	118 to 120
Cc1ccc(C2CCc3ccccc3O2)cc1 (centres undefined)	94
CCn1nnc(C(C=CC=O)=C(c2ccc(F)cc2)c2ccc(F)cc2)n1	117 to 120
Cc1c(C)c2c(c(C)c1O)CC[C@@](C)(CCO)O2	155
CCCCCCc1ccc(OCCCCCC(=O)Nc2ccc(O)cc2)cc1O	128
CCC1(CCCCCBr)C(=O)Nc2ccccc21 (centres undefined)	77 to 78
COc1ccc(O)cc1CCc1ccc2nc[nH]c(=O)c2c1	221 to 224
Cc1nc[nH]c1CSCCNC(=C[N+](=O)[O-])NCCSCc1nccs1	119 to 120
CCNc1cc(O)c(C(=O)c2ccccc2C(=O)O)cc1C	200 to 202
CN1C(=O)C(=O)c2cccnc21	162 to 163
Cc1cc(C2=NN(C(N)=S)[C@H](C)Cc3cc4c(cc32)OCO4)ccc1[N+](=O)[O-]	123 to 125

SMILES	melting point [°C]
C#CC12CCCN(CC1)C2 (centres undefined)	41 to 42
CC(C)(CCCCCCCCC(C)(C)NC(=O)Cc1cc(C(C)(C)C)c(O)c(C(C)(C)C)c1)NC(=O)Cc1cc(C(C)(C)C)c(O)c(C(C)(C)C)c1	168
Clc1ccc2c3c([nH]c2c1)C1=CCCCN1CC3	165
O=C1CNCC2=C1N=C1N=C(N3CCOCC3)NN1C2	308 to 310
CCCCCCCCCCCCCCCCCC1OC1C (centres undefined)	40
COc1ccc(NC(=O)NCc2ccc3c(c2)CN(C2CCC(=O)NC2=O)C3=O)cc1OC (centres undefined)	216 to 218
COc1ccc(CN2CCc3cc(O)ccc3C2)cc1OC	119 to 122
O=Cc1cc(OCCCNC(=O)NC2CCCCC2)ccc1[N+](=O)[O-]	150 to 152
CCCCCc1c(C(C)C)nc(C(C)C)c(CO)c1-c1ccc(OC)cc1	47 to 49
O=C(O)Cn1c(=O)n2n(c1=O)C(C(=O)O)CCC2 (centres undefined)	189 to 192
CC(C)(C)NS(=O)(=O)c1cc2c(s1)S(=O)(=O)NCC2=O	170 to 172
CCOC(=O)c1cnc2c(O)nccn2c1=O	> 300
CC(C)(C)OC(=O)Nc1ccc(Br)cc1	101 to 103
CCCCCCCCCCCc1cc2ccc(C(=O)OCC(O)CO)cc2[nH]1 (racemic)	110 to 112
CCN(CC)CC(=O)Nc1ccc(NC(=O)CN(CC)CC)c2c1C(=O)c1ccccc1C2=O	85 to 86
COC(=O)C(OC)(OC)C(=O)Nc1ccc(Br)cc1C	99 to 103
O=[N+]([O-])c1ccc(Br)cc1-c1cc(-c2cccc(Br)c2)no1	179 to 180
N#Cc1cccc(-c2ccc3c(c2)NC(=O)CO3)c1	242
C=Cc1cc(CNC(=O)NCc2ccc(C(C)(C)C)cc2)cc(C)c1NS(C)(=O)=O	105 to 107
COc1ccc(S(=O)(=O)N(C)C)c([N+](=O)[O-])c1	90 to 92
O=S(=O)(CCO)C(F)(F)C(O)(Cn1cncn1)c1ccc(F)cc1F (centres undefined)	113 to 115
COC(=O)C1Cc2ccccc2CC(C(=O)OC)C1=O (centres undefined)	100 to 110

SMILES	melting point [°C]
CCOC(=O)C1=C(C)N(C(C)=O)C(c2csc(C)n2)=NC1c1cccc(OC)c1 (centres undefined)	114 to 116
Cc1ccc(C2OCC(C)(CO)CO2)cc1 (centres undefined)	104 to 106
O=C(O)CCCC=Cc1nn(-c2ccc(F)cc2)c2c1CCC2	90 to 91
CCOc1nsc(NC(=O)N(C)C)c1C#N	204 to 205
COc1ccc(CCNc2c(-c3ccc(S(C)(=O)=O)cc3)cnn(CC(F)(F)F)c2=O)cc1OC	163 to 165
CCOCCOCc1ccc(-c2ccc3c(c2)C=C(C(=O)Nc2ccc(CN(C)C4CCOCC4)cc2)CCS3(=O)=O)cc1	184 to 186
CCOC(=O)Nc1cccc(C)c1C(=O)OCC	38.5 to 39.5
CN1CCN(C)CC(OC(=O)c2n[nH]c3ccccc23)C1	184 to 185
Cc1nc2c3c(c(CO)cc2n1C)CCC(c1ccccc1)N3 (centres undefined)	253 to 254
Brc1cc(Br)c2c(c1)CCN2	164 to 165
CCCCCCCCCCCc1nc(N)n[nH]1	128 to 132
Clc1ccc(OCC2COC(CBr)(c3ccc(Cl)cc3)O2)cc1 (centres undefined)	165
CC(=O)OC1CCC2(C)C(CCC3C4CC5OC6(CC(C)C(C)(C)O6)C(C)(O)C5C4(C)CC(OC(C)=O)C32)C1 (centres undefined)	253 to 256
CCCOc1ncc(NC(=O)CC(=O)O)cc1-c1nc2c(CCC)nn(C)c2c(=O)[nH]1	261 to 262
O=C1CC2C(OCc3ccc(Br)cc3)CC(O1)C2N1CCCCC1 (single isomer, unassigned; (-))	85 to 88
CC(C)(C)c1nn(-c2cc(F)c(C#N)cc2F)c(=O)o1	137
Cc1cc(O)c(C2CCCCC2)cc1Sc1cc(C2CCCCC2)c(O)cc1C	128 to 130
COC(=O)c1ccc2c(c1)CN(c1cc3c(cc1F)c(=O)c(C(=O)O)cn3C1CC1)C2	279 to 285
CC(CCCC(=O)CCCC(C)(C(=O)O)c1ccccc1)(C(=O)O)c1ccccc1 (centres undefined)	44 to 46
CN(C)CCN(C(=O)c1cc([N+](=O)[O-])ccc1Br)c1ccnc2cc3c(cc12)OCO3	204 to 205

Next, values leading:

melting point [°C]	SMILES
215	Cc1noc(NC(=O)C(c2ccccc2)c2ccccc2)n1
> 275	CCOC(=O)Nc1nc(-c2ccccc2)c(-c2nc3ccccc3c(=O)n2-c2ccc(Cl)cc2)s1
65 to 73	Cc1[nH]c2ccccc2c1CCN1CCN(C(c2ccc(F)cc2)c2ccc(F)cc2)CC1
146 to 147	CCC(=O)Oc1ccc(C(=O)Nc2ccc3cc(CN4CCCC4)cnc3c2C)cc1
99.5 to 100	O=C(CN(C(=O)CCl)C1Cc2ccccc2C1)OCc1ccccc1
279	COc1ccc(C2C(C(=O)c3ccc(OC(F)(F)F)cc3)=C(O)C(=O)N2c2ccc(C)nn2)cc1 (centres undefined)
83 to 86	CC(=O)Oc1ccc(C(=O)Nc2cccc(OCc3cncc4ccccc34)c2)cc1C(C)(C)C
167	Cc1cccc(NC(=O)NCC(=O)N(CC(=O)N2CCCc3ccccc32)c2ccccc2)c1
> 240	CCn1ncc2c(NCc3cccc(O)c3)c3ccccc3nc21
130 to 131	COC(=O)CCc1sc(N)nc1-c1ccccc1
94	CN(C)CCCNC(=O)c1ccc(-c2cnc3c(c2)N(C(=O)c2ccccc2)CCN3)cc1
138 to 139	O=C(Nc1ccc(-n2nc(C(F)(F)F)cc2C(F)(F)F)cc1)c1ccc(F)c(Cl)c1
196 to 198	CC(C)(O)Cn1c(COCc2ccccc2)nc2c(N)nc3ccccc3c21
220	O=c1oc2c(O)cccc2c(O)c1-c1ccccc1
118 to 120	COc1ccc(-c2nc(CCC(=O)O)oc2-c2ccccc2)cc1
188 to 190	O=C(Nc1ccc(OCCN2CCOCC2)c2ccccc12)c1ccc2snnc2c1
168 to 170	NC(=O)C(=O)NC(C(=O)OC(c1ccccc1)c1ccccc1)c1ccco1 (centres undefined)
153 to 154	COC(=O)c1cccc(CC2COc3ccc(OCc4ccc5ccccc5n4)cc3C2O)c1 (centres undefined)

melting point [°C]	SMILES
204 to 206	c1ccc(C2CN(CCCc3cccnc3)Cc3c2[nH]c2ccccc32)cc1 (centres undefined)
215 to 218	O=C(Nc1cccc2c(=O)cc(C(=O)O)oc12)c1ccc2oc(COCc3ccccc3)cc2c1
220 to 221	CCc1nc2c(NC(=O)C(C)(C)C)nc3ccccc3c2n1CCCCNS(C)(=O)=O
107 to 113	O=C(N=P(c1ccccc1)(c1ccccc1)c1ccccc1)OCC1CC1
146 to 148	O=C(c1ccccc1)c1ccc(OCCCOc2ccc(C(=O)c3ccccc3)cc2)cc1
172 to 173	Cc1c(Cc2cccc(C(F)(F)F)c2)sc2c(-c3cccc(C(=O)O)c3)cccc12
165 to 167	Cc1nc2c(-c3cccc(N4CCOCC4)c3)cnn2c(N)c1-c1cccc(Cl)c1
103 to 104	Cc1ccccc1-c1nc(Cl)c2ccccc2n1
234 to 235	CCOC(=O)c1[nH]c2cc(Cl)cc(Cl)c2c1NCC(=O)c1cccc(F)c1
112 to 115	COc1cc(CC(=O)NCCOc2ccc(C(=O)O)cc2[N+](=O)[O-])ccc1N(C(N)=O)c1ccccc1C
190 to 191	NC(=O)c1c(F)ccc(OCc2nc3ccc(Cl)cc3s2)c1F
163 to 168	COC(=O)CCCc1cc2cc(C(F)(F)F)ccc2n1S(=O)(=O)c1ccc2nc(C)sc2c1
68 to 71	C=CCOC(=O)c1cccc(NC(=O)NCNC(=O)c2ccccc2C(=O)c2ccccc2)c1
106 to 108	CN(Cc1ccccc1)c1nc(N2CCC(NCC(c3ccccc3)c3ccccc3)CC2)nc2c(N3CCOCC3)ncnc12
142 to 143	Cc1ccc(-c2nnc(N3CCC(OC(=O)Oc4ccccc4)CC3)nc2-c2ccc(C)cc2)cc1
265 to 267	CNc1nc(Nc2ccc(Cl)c(Cl)c2)ncc1NC(=O)c1ccccc1
170	O=C(c1cnc2ccccc2c1)C1CCN(C(=O)c2ccccc2)CC1
